The text below walks through data of PMC3830801, “Synthesis and Biological Evaluation of 2-Hydroxy-3-[(2-aryloxyethyl)amino]propyl 4-[(Alkoxycarbonyl)amino]benzoates” (The Scientific World Journal, 2013).

In series [1] the test system is Mycobacterium intracellulare. The experiment in a line: In vitro antimycobacterial evaluation (alamarBlue, MIC). Type of series: cell-based. Particulars: for MIC: Mycobacterium intracellulare, 168 h, MIC/IC90, 7 days incubation, 37°C. How it is done:
(§1) Clinical isolates of Mycobacterium avium subsp. paratuberculosis CIT03 and M. intracellulare were grown in Middlebrook broth (MB), supplemented with oleic-albumin-dextrose-catalase supplement (OADC, Becton Dickinson, UK) and mycobactin J (2 μg/mL). Identification of these isolates was performed using biochemical and molecular protocols. At log phase growth, the culture (10 mL) was centrifuged at 15,000 rpm/20 min using a bench top centrifuge (Model CR 4–12, Jouan Inc., UK). Following the removal of the supernatant, the pellet was washed in fresh Middlebrook 7H9GC broth and resuspended in fresh supplemented MB (10 mL). The turbidity was adjusted to match McFarland standard no. 1 (3 × 10^8 cfu) with MB broth. A further 1 : 20 dilution of the culture was then performed in MB broth. The antimicrobial susceptibility of all four mycobacterial species was investigated in a 96-well plate format. In these experiments, sterile deionised water (300 μL) was added to all outer-perimeter wells of the plates to minimize evaporation of the medium in the test wells during incubation. Each evaluated compound (100 μL) was incubated with each of the mycobacterial species (100 μL). Dilutions of each compound were prepared in duplicate. For all synthesized compounds, final concentrations ranged from 1,000 μg/mL to 8 μg/mL. All compounds were prepared in DMSO, and subsequent dilutions were made in supplemented MB. The plates were sealed with parafilm and incubated at 37°C, for 7 days in the case of M. intracellulare and 11 days in the case of M. avium paratuberculosis. Following incubation, a 10% addition of alamarBlue (AbD Serotec) was mixed with each well, and readings at 570 nm and 600 nm were taken, initially for background subtraction and subsequently after 24 h reincubation. […] For noninterfering compounds, a blue colour in the well was interpreted as an absence of growth, and a pink colour was scored as growth. The MIC was initially defined as the lowest concentration which prevented a visual colour change from blue to pink. […] The MIC/IC90 value is routinely and widely used in bacterial assays and is a standard detection limit according to the Clinical and Laboratory Standards Institute (CLSI, http://www.clsi.org/).
For orientation: The colour change of resazurin is a common sign of viable cells or microbes.

Series [2] has as its system Mycobacterium avium subsp. paratuberculosis CIT03. The description is as above. It counts as cell-based. Particulars: for MIC: Mycobacterium avium, 264 h, MIC/IC90, 11 days incubation, 37°C. How it is done:
as §1

Series [3] can be described thus: pKa determination by RP-HPLC. It counts as physicochemical. The note with it: from retention factor vs pH of mobile phase, recalculated for water medium.
Series [4] is described as follows: Lipophilicity determination by HPLC (capacity factor k / log k). Type of series: physicochemical. The note with it: RP-HPLC, C18, MeOH 55%/H2O 45%. The text has this:
A Waters Alliance 2695 XE HPLC separation module and a Waters Photodiode Array Detector 2996 (Waters Corp., Milford, MA, USA) were used. A Symmetry C18 5 μm, 4.6 × 250 mm, part number WAT054275 (Waters Corp., Milford, MA, USA) chromatographic column was used. The HPLC separation process was monitored by Empower 2 Chromatography Data Software, Waters 2009 (Waters Corp., Milford, MA, USA). A mixture of MeOH p.a. (55%) and H2O-HPLC–Milli-Q Grade (45%) was used as a mobile phase. The total flow of the column was 1.0 mL/min, injection volume 30 μL, column temperature 45°C, and sample temperature 10°C. The detection wavelength of 210 nm was chosen. The KI methanolic solution was used for the dead time (t D) determination. Retention times (t R) were measured in minutes. The capacity factors k were calculated using the Empower 2 Chromatography Data Software according to formula k = (t R − t D)/t D, where t R is the retention time of the solute, whereas t D denotes the dead time obtained using an unretained analyte. logk, calculated from the capacity factor k, is used as the lipophilicity index converted to logP scale.

For the next series, the system named is spinach chloroplasts. Put plainly: Photosynthetic electron transport (PET) in spinach chloroplasts (DCPIP photoreduction). Type of series: biochemical, Spinacia oleracea L. Particulars: DMSO 8% v/v. How it is done: Chloroplasts were prepared from spinach (Spinacia oleracea L.) according to Masarovičová and Král'ová [38]. The inhibition of photosynthetic electron transport (PET) in spinach chloroplasts was determined spectrophotometrically (Genesys 6, Thermo Scientific, USA), using an artificial electron acceptor 2,6-dichlorophenol-indophenol (DCIPP) according to Král'ová et al., and the rate of photosynthetic electron transport was monitored as a photoreduction of DCPIP. The measurements were carried out in phosphate buffer (0.02 mol/L, pH 7.2) containing sucrose (0.4 mol/L), MgCl2 (0.005 mol/L), and NaCl (0.015 mol/L). The chlorophyll content was 30 mg/L in these experiments, and the samples were irradiated (~100 W/m^2 with 10 cm distance) with a halogen lamp (250 W) using a 4 cm water filter to prevent warming of the samples (suspension temperature 22°C). The studied compounds were dissolved in DMSO due to their limited water solubility, and the concentration of DMSO was constant (8% (v/v)) in control as well as in amphiphile-treated samples.

`COC(=O)Nc1ccc(C(=O)OCC(O)CNCCOc2ccccc2OC)cc1.Cl` (stereo not drawn) [Compound 19a, 2-Hydroxy-3-[2-(2-methoxyphenoxy)ethylamino]-propyl 4-(Methoxycarbonylamino)benzoate Hydrochloride]: the MIC (in general, the least concentration at which growth counts as inhibited) in series [1] amounted to 550 µM; in series [2], 275 µM. Further, in series [3], the pKa (as a rule, the pH at which an ionisable group is half protonated) was 8.82. This compound had a Log k in series [4] of 0.3870.
The like results for `CCOC(=O)Nc1ccc(C(=O)OCC(O)CNCCOc2ccccc2OC)cc1.Cl` (stereo not drawn) [Compound 19b, 2-Hydroxy-3-[2-(2-methoxyphenoxy)ethylamino]-propyl 4-(Ethoxycarbonylamino)benzoate Hydrochloride] were, in that order, 533 µM, 128 µM, 8.9 and 0.3976.
For the compound `CCCOC(=O)Nc1ccc(C(=O)OCC(O)CNCCOc2ccccc2OC)cc1.Cl` (stereo not drawn) [Compound 19c, 2-Hydroxy-3-[2-(2-methoxyphenoxy)ethylamino]-propyl 4-(Propoxycarbonylamino)benzoate Hydrochloride], the results for the minimum inhibitory concentration (MIC) in series [1] and in series [2] were 259 µM and 64 µM, respectively. Further, in the series on spinach chloroplasts, the “effect on the rate of PET (in words)” value is “relatively strong PET stimulation”. For the same compound, in series [3], the pKa is 8.67. For the same compound, the Log k in series [4] was found to be 0.4089.
For `COC(=O)Nc1ccc(C(=O)OCC(O)CNCCOc2ccc(OC)cc2)cc1.Cl` (stereo not drawn) [Compound 20a, 2-Hydroxy-3-[2-(4-methoxyphenoxy)ethylamino]-propyl 4-(Methoxycarbonylamino)benzoate Hydrochloride], the minimum inhibitory concentration (MIC) in series [1] and in series [2] was 550 µM in each case. Besides, in series [3], the pKa is 8.25. In addition, in series [4], the Log k is given as 0.3881.
For `CCOC(=O)Nc1ccc(C(=O)OCC(O)CNCCOc2ccc(OC)cc2)cc1.Cl` (stereo not drawn) [Compound 20b, 2-Hydroxy-3-[2-(4-methoxyphenoxy)ethylamino]-propyl 4-(Ethoxycarbonylamino)benzoate Hydrochloride], the MIC in series [1] and in series [2] was 533 µM each time. Moreover, the pKa in series [3] is 8.23. Also, the Log k in series [4] is recorded as 0.3999.
`COC(=O)Nc1ccc(C(=O)OCC(O)CNCCOc2c(OC)cccc2OC)cc1.Cl` (stereo not drawn) [Compound 21a, 2-Hydroxy-3-[2-(2,6-dimethoxyphenoxy)ethylamino]-propyl 4-(Methoxycarbonylamino)benzoate Hydrochloride]: the MIC in series [1] and in series [2] was 516 µM each time. The pKa in series [3] is 9.14. In addition, the Log k in series [4] was 0.3865.
`CCOC(=O)Nc1ccc(C(=O)OCC(O)CNCCOc2c(OC)cccc2OC)cc1.Cl` (stereo not drawn) [Compound 21b, 2-Hydroxy-3-[2-(2,6-dimethoxyphenoxy)ethylamino]-propyl 4-(Ethoxycarbonylamino)benzoate Hydrochloride]: the MIC in series [1] and in series [2] was 501 µM in each case. In addition, the pKa in series [3] is 8.88. Further, the Log k in series [4] came out at 0.3956.
As to `CCCOC(=O)Nc1ccc(C(=O)OCC(O)CNCCOc2c(OC)cccc2OC)cc1.Cl` (stereo not drawn) [Compound 21c, 2-Hydroxy-3-[2-(2,6-dimethoxyphenoxy)ethylamino]-propyl 4-(Propoxycarbonylamino)benzoate Hydrochloride], the minimal inhibitory concentration (MIC) in series [1] came to 487 µM; in series [2], 117 µM. Besides, in series [3], the pKa was 8.9. In series [4], the Log k is 0.4052.
The like results for `COC(=O)Nc1ccc(C(=O)OCC(O)CNCCOc2ccccc2F)cc1.Cl` (stereo not drawn) [Compound 22a, 3-[2-(2-Fluorophenoxy)ethylamino]-2-hydroxypropyl 4-(Methoxycarbonylamino)benzoate Hydrochloride] were, in that order, 564 µM, 564 µM, 7.98 and 0.3904.
The like results for `CCOC(=O)Nc1ccc(C(=O)OCC(O)CNCCOc2ccccc2F)cc1.Cl` (stereo not drawn) [Compound 22b, 3-[2-(2-Fluorophenoxy)ethylamino]-2-hydroxypropyl 4-(Ethoxycarbonylamino)benzoate Hydrochloride] were, in that order, 547 µM, 547 µM, 7.99 and 0.4011.
The like results for `CCCOC(=O)Nc1ccc(C(=O)OCC(O)CNCCOc2ccccc2F)cc1.Cl` (stereo not drawn) [Compound 22c, 3-[2-(2-Fluorophenoxy)ethylamino]-2-hydroxypropyl 4-(Propoxycarbonylamino)benzoate Hydrochloride] were, in that order, 265 µM, 265 µM, 7.97 and 0.4206.
Turning to `COC(=O)Nc1ccc(C(=O)OCC(O)CNCCOc2ccc(F)cc2)cc1.Cl` (stereo not drawn) [Compound 23a, 3-[2-(4-Fluorophenoxy)ethylamino]-2-hydroxypropyl 4-(Methoxycarbonylamino)benzoate Hydrochloride], the MIC in series [1] and in series [2] was 564 µM in each case. Moreover, the pKa in series [3] was 8.04. The compound also showed a Log k in series [4] of 0.3915.
Regarding `CCOC(=O)Nc1ccc(C(=O)OCC(O)CNCCOc2ccc(F)cc2)cc1.Cl` (stereo not drawn) [Compound 23b, 3-[2-(4-Fluorophenoxy)ethylamino]-2-hydroxypropyl 4-(Ethoxycarbonylamino)benzoate Hydrochloride], the MIC in series [1] and in series [2] was 547 µM in each case. Besides, the pKa in series [3] was 8.09. This compound also displayed a Log k in series [4] of 0.4032.
Turning to `CCCOC(=O)Nc1ccc(C(=O)OCC(O)CNCCOc2ccc(F)cc2)cc1.Cl` (stereo not drawn) [Compound 23c, 3-[2-(4-Fluorophenoxy)ethylamino]-2-hydroxypropyl 4-(Propoxycarbonylamino)benzoate Hydrochloride], the figures for the MIC in series [1] and in series [2] were 265 µM and 66 µM, respectively. Besides, the pKa in series [3] is 8.16. Besides, the Log k in series [4] came to 0.4228.
Consider `NNC(=O)c1ccncc1` [INH, isoniazid, reference compound], for which, in series [1], the “antimycobacterial activity against M. intracellulare (in words)” value was “inactive” and the MIC is over 729 µM. In series [2], the “antimycobacterial activity against M. avium subsp. paratuberculosis (in words)” value is “inactive” and the MIC is over 1820 µM.
As to `NC(=O)c1cnccn1` [PZA, pyrazinamide, reference compound], in series [1], the “antimycobacterial activity against M. intracellulare (in words)” value was “inactive” and the minimal inhibitory concentration (MIC) is over 812 µM. Besides, in series [2], the “antimycobacterial activity against M. avium subsp. paratuberculosis (in words)” value was “inactive” and the MIC was over 2030 µM.
Take `CO[C@H]1/C=C/O[C@@]2(C)Oc3c(C)c(O)c4c(O)c(c(/C=N/N5CCN(C)CC5)c(O)c4c3C2=O)NC(=O)/C(C)=C\C=C\[C@H](C)[C@H](O)[C@@H](C)[C@@H](O)[C@@H](C)[C@H](OC(C)=O)[C@@H]1C` [RIF, rifampicin, reference compound]: in series [2], the minimum inhibitory concentration (MIC) was over 109 µM.
